For 23 compounds, TGI and GI50 results are on record in PubChem BioAssay (NCI).

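Dose response: 5 concentrations. Exposure: 48 h. Format: 96-well plates. Endpoint: linear interpolation; highest concentration if not reached. GI50 marks 50% less growth. TGI: total growth inhibition.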

What all share (assay): inhibition of tumour cell growth, NCI panel, 48 h
The test system of assay [1] is SR leukemia.
Assay [2] has as its system SK-MEL-2 melanoma.
Assay [3] deals with SW-620 colon.
For assay [4], the system named is U251 CNS.
Assay [5] has as its system RXF 393 renal.
Assay [6] relates to OVCAR-3 ovarian.
Assay [7] concerns TK-10 renal.
In assay [8] the test system is BT-549 breast.
The test system of assay [9] is SN12C renal.
For assay [10], the system named is MCF7 breast.

For the compound `O=C[C@@H](CO)O[C@H](C=O)c1c[nH]c(=O)[nH]c1=O`, the TGI amounted to 614 µM in assay [1]; 3680 µM in assay [2]; 646 µM in [3]; 930 µM in assay [4]; 163 µM in assay [5]; 309 µM in assay [6]. The TGI turned out to be 355 µM in assay [7], 286 µM in assay [8], 551 µM in assay [9] and 428 µM in [10].

For the compound `C/C(=N\NC(=O)c1sc(=S)n(C)c1N)c1cc2ccccc2o1`, the GI50 in [1] was 8.04 µM; in assay [2] it was 14 µM; in assay [3] it was 14.8 µM; in assay [4] it was 13.6 µM; in assay [5] it was 13.2 µM; in assay [6], 15.5 µM. Moreover, the GI50 in [7] is 15.3 µM; in assay [8], 18.3 µM; in assay [9], 17.6 µM; in [10] it was 12.3 µM. Moreover, the TGI stood at 22 µM in [1]; 37 µM in [2]; 28.4 µM in assay [3]; 29 µM in [4]; 27.8 µM in assay [5]; 29.9 µM in [6]. Moreover, the TGI was 32.7 µM in [7], 41.8 µM in [8], 55.6 µM in [9] and 30.4 µM in assay [10].

With `COc1cccc2c1C(=O)C=CC2=O`, the TGI in [1] was 1.02 µM; in assay [2], 19.8 µM; in [3], 23.6 µM; in assay [4] it was 13.9 µM; in [5] it was 17.7 µM; in assay [6] it was 3.51 µM. Moreover, the TGI in [7] stood at 28.4 µM; in assay [8], 29.1 µM; in assay [9], 27.4 µM; in assay [10], 4.82 µM.

For `Cc1c2cc[n+](C)cc2c(C)c2c1sc1ccccc12`, the TGI in assay [1] is 9.54 µM; in assay [2] it was 7.71 µM; in assay [3], 33.1 µM; in [4], 1.15 µM; in [5] it was 12 µM; in assay [6], 5.43 µM. The TGI in [7] worked out at 68.5 µM; in assay [8], 1.37 µM; in [9], 0.747 µM; in [10], 41.8 µM.

Turning to `FC(F)(F)c1nc(N2CCCC2)ncc1-c1nnnn1-c1ccc(Cl)cc1`, the GI50 in [1] is 2.53 µM; in assay [2] it was 18 µM; in assay [3], 30.4 µM; in [4], 33 µM; in assay [5] it was 14.9 µM; in assay [6], 18.9 µM. For the same compound, the GI50 in [7] is 15.4 µM; in assay [8] it was 31 µM; in assay [9], 26.3 µM; in [10], 14.3 µM. The TGI in assay [1] is 6.24 µM; in assay [2] it was greater than 100 µM; in assay [3], greater than 100 µM; in [4] it was greater than 100 µM; in assay [5], 51.7 µM; in assay [6] it was 83.4 µM. In addition, the TGI in assay [7] was 75.6 µM; in assay [8] it was greater than 100 µM; in assay [9] it was greater than 100 µM; in [10], greater than 100 µM.

As to `NC1=NC(=O)/C(=C/c2ccccc2[N+](=O)[O-])C(N)=N1`, the TGI in [1], in assay [2], in assay [3], in assay [4], in assay [5] and in assay [6] was greater than 100 µM each time. Also, the TGI in assay [7] and in assay [9] was greater than 100 µM throughout.

Consider `O=C(Nc1ccc(Cl)c(Cl)c1)c1cccc(NC2=C(Cl)C(=O)N(Cc3ccccc3)C2=O)c1`, for which the GI50 in assay [1] is 8.37 µM; in assay [2] it was 23.5 µM; in assay [3], 48.8 µM; in assay [4], 35.3 µM; in assay [5], 25.1 µM; in assay [6], 24.6 µM. The GI50 in assay [7] is greater than 100 µM; in [8], 17.3 µM; in assay [9] it was 52.9 µM; in assay [10], 22.5 µM. For the same compound, the TGI was 68 µM in assay [1]; 56.5 µM in [2]; greater than 100 µM in assay [3]; greater than 100 µM in assay [4]; 65.6 µM in assay [5]; greater than 100 µM in assay [6]. Moreover, the TGI in [7] was greater than 100 µM; in assay [8] it was 87.1 µM; in [9], greater than 100 µM; in assay [10], 96.1 µM.

Turning to `COc1ccc2[nH]c(=O)c3c4ccccc4cn3c2c1`, the GI50 in [1] was 0.125 µM; in assay [2], 1.35 µM; in assay [3], 0.319 µM; in assay [4] it was 0.388 µM; in [5], 0.312 µM; in [6], 0.253 µM. For the same compound, the GI50 in assay [7] was 1.28 µM; in assay [8] it was 7.3 µM; in assay [9], 0.6 µM; in assay [10], 0.153 µM. Further, the TGI was 0.842 µM in assay [1]; 7.66 µM in assay [2]; 1.39 µM in [3]; 1.55 µM in assay [4]; 1.09 µM in assay [5]; 0.608 µM in assay [6]. Besides, the TGI in assay [7] was found to be 5.02 µM; in assay [8], 20.9 µM; in [9] it was 7.17 µM; in assay [10], 0.969 µM.

With `CCOc1ccccc1NC(=O)CC1C(=O)Nc2ccccc2S1=O` (stereo not given), the TGI in [1], in assay [2], in assay [3], in assay [4], in assay [5] and in assay [6] was greater than 100 µM throughout. In addition, the TGI in assay [7] and in assay [9] was greater than 100 µM each time.

As to `O=C1c2ccccc2-c2c1c1ccccc1c(=O)n2CCCCNCCCn1c2c(c3ccccc3c1=O)C(=O)c1ccccc1-2`, the GI50 was 0.005 µM in [1]; 3.51 µM in assay [2]; 0.022 µM in [3]; 0.33 µM in assay [5]; 0.509 µM in [6]; 0.887 µM in [7]. The results for the GI50 in assay [8], in assay [9] and in [10] were 1.34 µM, 0.158 µM and 0.345 µM, respectively. The TGI worked out at 0.0273 µM in assay [1]; 15.2 µM in [2]; 0.528 µM in assay [3]; 7.08 µM in assay [5]; 2.06 µM in assay [6]; 4.32 µM in assay [7]. The TGI in [8] was determined as 4.15 µM; in [9] it was 1.13 µM; in assay [10], 6.25 µM.

Take `ON/N=C/c1cc2c(cc1Br)OCO2`: the TGI in assay [1], in assay [2], in assay [3], in assay [4], in [5] and in [6] was greater than 386 µM throughout. In addition, the TGI in assay [7] and in assay [9] was greater than 386 µM throughout.

Regarding `COc1ccccc1NC(=O)c1sc2nc3c(cc2c1N)C(=O)CCC3`, the GI50 in assay [1] is greater than 100 µM; in [2], 1.81 µM; in assay [4], 4.64 µM; in assay [5] it was 1.83 µM; in [6], 25.3 µM; in [8] it was 4.43 µM. In addition, the GI50 in assay [9] is greater than 100 µM; in assay [10], 4.8 µM. Moreover, the TGI was greater than 100 µM in assay [1]; greater than 100 µM in [2]; greater than 100 µM in assay [4]; 9.33 µM in [5]; greater than 100 µM in [6]; greater than 100 µM in assay [8]. Further, the TGI in assay [9] and in [10] was greater than 100 µM in each case.

In the case of `Clc1ncnc(Cl)c1Cl`, the TGI in assay [1], in [3], in [4], in assay [5], in assay [6] and in assay [7] was greater than 100 µM in each case. Also, the TGI in assay [9] and in [10] was greater than 100 µM each time.

As to `CC(C)/C=C1\CCC(CN2CCCC2)C1=O` (stereo not given), the TGI in assay [1] amounted to 8.09 µM; in [2] it was 37.7 µM; in assay [3], 7.94 µM; in [4] it was 21 µM; in assay [5] it was 29.7 µM; in assay [6] it was 31.8 µM. The TGI is 24.7 µM in assay [7] and 34.8 µM in [9].

Turning to `CN1C(=O)CC(c2cccc(C3CC(=O)N(C)C3=O)n2)C1=O` (stereo not given), the TGI in [1], in assay [2], in assay [3], in [4], in assay [5] and in assay [6] was greater than 100 µM each time. Further, the TGI in assay [7] and in assay [9] was greater than 100 µM throughout.

`O=C1C(Cl)=C(Nc2cccc(Cl)c2)C(=O)N1Cc1ccccc1`: the GI50 in assay [1] was 2.19 µM; in assay [2] it was 21.7 µM; in assay [4], 3.98 µM; in [5], 1.36 µM; in assay [6], 5.02 µM; in assay [7] it was 13.9 µM. For the same compound, the GI50 was 11.2 µM in assay [9] and 14.9 µM in assay [10]. For the same compound, the TGI was 29.3 µM in assay [1]; greater than 100 µM in assay [2]; 15.5 µM in [4]; 7 µM in assay [5]; 17.7 µM in [6]; 32.3 µM in [7]. For the same compound, the figures for the TGI in assay [9] and in assay [10] were 25.1 µM and greater than 100 µM, respectively.

Consider `OC1[C@H]([C@H]2CCCC[C@@H]2O)CCC[C@@H]1[C@@H]1CCCC[C@H]1O` (stereo not given in full), for which the TGI in [1], in assay [2], in [3], in assay [4], in assay [5] and in [6] was greater than 100 µM throughout. Also, the TGI in assay [7] and in [9] was greater than 100 µM in each case.

As to `O=C(Nc1ccccc1-c1n[nH]c(=S)[nH]c1=O)C(F)(F)F`, the TGI in assay [1], in assay [2], in assay [3], in [4], in assay [5] and in assay [6] was greater than 100 µM throughout. For the same compound, the TGI in [7] and in assay [9] was greater than 100 µM each time.

Regarding `COC(=O)C1=C(c2ccc(OC)c(OC)c2)OC(c2ccc(OC)c(OC)c2)C1` (stereo not given), the TGI in [1] was greater than 100 µM; in [2], greater than 100 µM; in assay [3], greater than 100 µM; in assay [4], greater than 100 µM; in assay [5], 69.9 µM; in assay [6], greater than 100 µM. The TGI in assay [7] and in assay [9] was greater than 100 µM each time.

Regarding `Cc1cc(N(CCC#N)CCC#N)ccc1/C=C1N=C(/C=C\c2ccccc2)OC\1=O`, the TGI in [1], in assay [2], in assay [3], in assay [4], in [5] and in assay [6] was greater than 100 µM each time. Besides, the TGI in assay [7] and in assay [9] was greater than 100 µM in each case.

Regarding `O=[N+]([O-])c1ccc(S(=O)(=O)Cc2ccccc2)c([N+](=O)[O-])c1`, the TGI in assay [1] worked out at 6.03 µM; in assay [2], 8.62 µM; in assay [3], 20.1 µM; in assay [4], 4.91 µM; in [5], 3.4 µM; in assay [6], 2.57 µM. Besides, the TGI turned out to be 3.28 µM in assay [7], 5.12 µM in assay [8] and 3.65 µM in [10].

As to `CS/C(=N\C(=S)N(C)C)N(c1ccccc1)c1nc(=[N+](C)C)ss1`, the TGI amounted to 24.6 µM in [1]; 36.6 µM in [2]; 16.3 µM in [3]; 20 µM in assay [4]; 37.4 µM in [5]; 22.7 µM in assay [6]. Moreover, the results for the TGI in assay [7] and in assay [9] were greater than 100 µM and 37.9 µM, respectively.

For the compound `FC(F)(F)Oc1cccc(-c2cnc3ccc(-c4ccncc4)nn23)c1`, the GI50 is 0.744 µM in assay [1]; 0.801 µM in assay [3]; 0.833 µM in assay [4]; 0.398 µM in assay [5]; 1.65 µM in assay [6]; 1.14 µM in [7]. The GI50 in assay [8] was 1.42 µM; in assay [9], 1.56 µM; in assay [10], 1.56 µM. Also, the TGI was 11.8 µM in assay [1]; greater than 100 µM in [3]; greater than 100 µM in assay [4]; 2.41 µM in assay [5]; 7.43 µM in assay [6]; 9.76 µM in assay [7]. The figures for the TGI in [8], in assay [9] and in assay [10] were 8.88 µM, greater than 100 µM and 6.12 µM, respectively.
